Patent publication US9492471B2, “Methods of treating a disease or disorder associated with Bruton'S Tyrosine Kinase” (Celgene Avilomics Research, Inc., priority 2013, dated 2016)
Where two headings read alike, the source gives them in different places.

Experiments:
Test in all cases: HotSpot kinase profiling
Type in all cases: biochemical
[1] = molecular target: T1, TYK1/LTK (Homo sapiens, UniProt P29376)
T1 construct: purchased Reaction Biology Corp
Procedure, shortened: (§1)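 Activity is measured by radiolabel transfer captured on P81 filters after a 2 h room-temperature reaction of kinase, substrate and cofactors. Values are percent inhibition against DMSO.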

[2] = molecular target: T2, ERK2/MAPK1 (Homo sapiens, UniProt P28482)
T2 construct: purchased Reaction Biology Corp
Procedure, shortened: as §1

[3] = molecular target: T3, PKCiota (Homo sapiens, UniProt P41743)
T3 construct: purchased Reaction Biology Corp
T3 sequence (P41743 1-596): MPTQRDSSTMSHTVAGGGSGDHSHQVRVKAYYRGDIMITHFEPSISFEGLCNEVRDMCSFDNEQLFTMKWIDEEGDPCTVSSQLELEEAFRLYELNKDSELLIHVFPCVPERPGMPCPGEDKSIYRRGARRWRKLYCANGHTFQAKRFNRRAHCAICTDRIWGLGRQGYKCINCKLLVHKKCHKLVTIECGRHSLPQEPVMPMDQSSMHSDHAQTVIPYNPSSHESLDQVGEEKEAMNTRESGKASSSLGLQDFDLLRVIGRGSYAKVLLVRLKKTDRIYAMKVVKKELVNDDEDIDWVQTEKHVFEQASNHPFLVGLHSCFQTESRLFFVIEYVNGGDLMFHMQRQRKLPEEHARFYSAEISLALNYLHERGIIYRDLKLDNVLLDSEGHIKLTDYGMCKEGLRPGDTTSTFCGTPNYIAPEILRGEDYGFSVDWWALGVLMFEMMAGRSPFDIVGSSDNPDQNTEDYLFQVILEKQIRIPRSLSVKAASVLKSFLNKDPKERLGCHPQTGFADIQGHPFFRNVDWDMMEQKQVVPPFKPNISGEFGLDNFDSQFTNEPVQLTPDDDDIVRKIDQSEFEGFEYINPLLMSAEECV
Procedure, shortened: as §1

[4] = molecular target: T4, MAPKAPK3 (Homo sapiens, UniProt Q16644)
T4 construct: purchased Reaction Biology Corp
Procedure, shortened: as §1

[5] = molecular target: T5, OSR1/OXSR1 (Homo sapiens, UniProt O95747)
T5 construct: purchased Reaction Biology Corp
Procedure, shortened: as §1

[6] = molecular target: T6, PKG1a (Homo sapiens, UniProt Q13976)
T6 construct: purchased Reaction Biology Corp
T6 sequence (Q13976 1-671): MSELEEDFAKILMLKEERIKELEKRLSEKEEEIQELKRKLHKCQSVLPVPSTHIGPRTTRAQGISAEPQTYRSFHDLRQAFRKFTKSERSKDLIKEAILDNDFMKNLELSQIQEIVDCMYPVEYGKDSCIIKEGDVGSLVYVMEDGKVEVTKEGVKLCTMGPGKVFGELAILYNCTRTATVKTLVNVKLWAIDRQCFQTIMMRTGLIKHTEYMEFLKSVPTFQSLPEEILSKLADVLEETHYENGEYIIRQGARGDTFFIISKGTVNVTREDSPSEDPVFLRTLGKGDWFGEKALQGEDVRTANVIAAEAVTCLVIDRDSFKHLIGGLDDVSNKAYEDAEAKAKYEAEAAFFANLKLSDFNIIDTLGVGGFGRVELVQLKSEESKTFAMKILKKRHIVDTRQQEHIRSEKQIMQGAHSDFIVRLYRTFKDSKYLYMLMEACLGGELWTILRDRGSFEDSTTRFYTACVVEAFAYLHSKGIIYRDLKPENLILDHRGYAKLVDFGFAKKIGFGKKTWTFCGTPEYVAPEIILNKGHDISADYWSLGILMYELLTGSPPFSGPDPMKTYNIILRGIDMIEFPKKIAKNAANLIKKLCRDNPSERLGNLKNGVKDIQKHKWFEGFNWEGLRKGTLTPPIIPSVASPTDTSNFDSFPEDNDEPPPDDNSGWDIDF
Procedure, shortened: as §1

[7] = read-out: % Enzyme Activity (relative to DMSO controls) Run 1
[8] = read-out: % Enzyme Activity (relative to DMSO controls) Run 2

T2 sequence (P28482 whole entry): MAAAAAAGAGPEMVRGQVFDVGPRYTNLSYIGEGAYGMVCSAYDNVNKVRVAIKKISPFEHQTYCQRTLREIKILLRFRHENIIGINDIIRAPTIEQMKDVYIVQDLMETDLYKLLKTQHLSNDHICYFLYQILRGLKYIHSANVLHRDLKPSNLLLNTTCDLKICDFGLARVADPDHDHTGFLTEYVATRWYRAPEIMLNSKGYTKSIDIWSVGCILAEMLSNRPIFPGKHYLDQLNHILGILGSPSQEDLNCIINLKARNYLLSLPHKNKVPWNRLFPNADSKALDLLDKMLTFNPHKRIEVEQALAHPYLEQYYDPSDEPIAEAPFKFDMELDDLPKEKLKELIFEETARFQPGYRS
T5 sequence (O95747 whole entry): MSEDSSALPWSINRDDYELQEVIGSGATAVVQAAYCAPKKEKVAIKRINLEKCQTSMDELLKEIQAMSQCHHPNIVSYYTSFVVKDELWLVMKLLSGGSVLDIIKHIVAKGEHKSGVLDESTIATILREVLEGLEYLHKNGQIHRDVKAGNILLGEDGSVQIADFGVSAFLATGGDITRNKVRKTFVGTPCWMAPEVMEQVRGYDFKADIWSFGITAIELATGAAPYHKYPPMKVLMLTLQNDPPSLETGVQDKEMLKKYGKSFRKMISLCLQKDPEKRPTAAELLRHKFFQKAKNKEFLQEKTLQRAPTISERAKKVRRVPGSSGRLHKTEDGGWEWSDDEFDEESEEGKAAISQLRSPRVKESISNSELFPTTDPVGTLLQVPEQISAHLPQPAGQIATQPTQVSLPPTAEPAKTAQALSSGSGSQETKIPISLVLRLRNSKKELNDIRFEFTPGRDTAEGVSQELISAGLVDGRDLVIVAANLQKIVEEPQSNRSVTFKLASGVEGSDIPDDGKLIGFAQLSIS
T4 sequence (Q16644 whole entry): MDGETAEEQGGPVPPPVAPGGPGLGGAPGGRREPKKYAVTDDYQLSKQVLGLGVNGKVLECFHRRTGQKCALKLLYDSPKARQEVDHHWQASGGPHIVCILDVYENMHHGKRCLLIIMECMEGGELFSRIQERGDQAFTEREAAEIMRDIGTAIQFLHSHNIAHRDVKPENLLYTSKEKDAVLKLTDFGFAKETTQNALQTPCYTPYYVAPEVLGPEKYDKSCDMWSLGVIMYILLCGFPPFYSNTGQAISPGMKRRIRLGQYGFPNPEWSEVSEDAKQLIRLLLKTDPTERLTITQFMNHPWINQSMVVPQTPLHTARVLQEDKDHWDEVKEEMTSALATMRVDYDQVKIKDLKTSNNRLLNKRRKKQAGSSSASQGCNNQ
T1 sequence (P29376 17-864): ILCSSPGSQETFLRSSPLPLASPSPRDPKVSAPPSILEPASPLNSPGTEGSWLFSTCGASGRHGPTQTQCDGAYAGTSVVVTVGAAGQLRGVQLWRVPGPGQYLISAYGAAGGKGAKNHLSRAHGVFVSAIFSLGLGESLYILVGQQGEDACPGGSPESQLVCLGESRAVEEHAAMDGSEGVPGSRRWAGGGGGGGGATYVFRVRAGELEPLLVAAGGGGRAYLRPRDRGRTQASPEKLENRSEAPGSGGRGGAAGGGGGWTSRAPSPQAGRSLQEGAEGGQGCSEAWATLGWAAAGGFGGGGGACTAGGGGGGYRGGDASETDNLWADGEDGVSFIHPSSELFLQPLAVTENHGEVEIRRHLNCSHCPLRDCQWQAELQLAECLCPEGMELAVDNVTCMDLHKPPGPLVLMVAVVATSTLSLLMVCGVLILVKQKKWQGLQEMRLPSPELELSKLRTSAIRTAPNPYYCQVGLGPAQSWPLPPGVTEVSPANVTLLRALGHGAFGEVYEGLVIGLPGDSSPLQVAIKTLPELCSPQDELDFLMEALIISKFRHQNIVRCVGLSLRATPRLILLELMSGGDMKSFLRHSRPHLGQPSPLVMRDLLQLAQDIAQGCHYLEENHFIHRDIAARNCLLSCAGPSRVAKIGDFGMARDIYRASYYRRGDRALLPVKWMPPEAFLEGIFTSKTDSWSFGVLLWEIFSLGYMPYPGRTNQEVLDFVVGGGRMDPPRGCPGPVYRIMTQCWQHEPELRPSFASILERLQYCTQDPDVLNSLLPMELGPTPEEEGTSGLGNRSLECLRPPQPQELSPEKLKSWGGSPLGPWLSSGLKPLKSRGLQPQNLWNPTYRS

**Q.** How did the inhibition at 3 µM [1] turn out when `C=CC(=O)Nc1cccc(Nc2nc(Nc3ccc(OCCOC)c(F)c3)ncc2F)c1` [Compound 2] was run?
**A.** 23.2%

**Q.** And the remaining activity at 3 µM [1, 7]?
**A.** 77.8%

**Q.** What about the remaining activity at 3 µM [1, 8] of the same molecule?
**A.** 75.8%

**Q.** And the inhibition at 3 µM [2]?
**A.** -4.25%

**Q.** What about the remaining activity at 3 µM [2, 7] of the same molecule?
**A.** 106%

**Q.** And the remaining activity at 3 µM [2, 8]?
**A.** 103%

**Q.** What about the inhibition at 3 µM [3] of the same molecule?
**A.** -5.47%

**Q.** What about the remaining activity at 3 µM [3, 7] of the same molecule?
**A.** 105%

**Q.** What about the remaining activity at 3 µM [3, 8] of the same molecule?
**A.** 106%

**Q.** And the inhibition at 3 µM [4]?
**A.** -2.45%

**Q.** What about the remaining activity at 3 µM [4, 7] of the same molecule?
**A.** 102%

**Q.** And the remaining activity at 3 µM [4, 8]?
**A.** 103%

**Q.** And the inhibition at 3 µM [5]?
**A.** -19.2%

**Q.** What about the remaining activity at 3 µM [5, 7] of the same molecule?
**A.** 117%

**Q.** And the remaining activity at 3 µM [5, 8]?
**A.** 122%

**Q.** What about the inhibition at 3 µM [6] of the same molecule?
**A.** 8.73%

**Q.** And the remaining activity at 3 µM [6, 7]?
**A.** 88%

**Q.** And the remaining activity at 3 µM [6, 8]?
**A.** 94.5%
